Measured values: patent US3984390A, “Novel process for producing phleomycin group antibiotics” (Zaidan Hojin Biseibutsu Kagaku Kenkyu Kai, priority 1972, dated 1976)

What was measured:
[1] = system: Mycobacterium smegmatis 607; assay: Antimicrobial potency, cylinder agar plate method, Bleomycin A2 (copper-free base) assumed as 1000 U/mg; format: cell-based; conditions: for Antimicrobial potency: Mycobacterium smegmatis 607
Protocol: 1. Antimicrobial potency was assayed by a cylinder agar plate method on the basis of Bleomycin A2 (copper-free base) assumed as 1000 U/mg, using Mycobacterium smegmatis 607 as test organism.
^(1) Assayed by a cylinder-agar plate method using Mycobacterium
smegmatis 607 as test organism, the potency of bleomycin A2
(copper-free base) being assumed as 1000 unit/mg.
The resulting compound has 0.65 of Rf value of the Silica gel thin layer chromatograph (CH3 OH: 10 %-CH3 COONH4 : 10 %-NH4 OH = 10 : 9 : 1) and 0.53 of Rf value of the Avicel thin layer chromatography (n-C3 H7 OH : pyridine : CH3 COOH : H2 O = 15 : 10 : 3 : 12) which are same with those of the 3-morpholinopropylaminobleomycin. The antimicrobial activity to Mycobacterium smegmatis 607 by the cylinder-agar plate method (the standard copper-free bleomycin A2 free base 1,000 U/mg) was 605 U/mg.

[2] = system: Ehrlich ascites carcinoma; assay: Antitumor activity and toxicity in ICR-SLC mouse inoculated with Ehrlich ascites carcinoma, i.p. for ten consecutive days; format: in vivo; conditions: for Chemotherapeutic index: Table 5, ten consecutive days into peritoneal cavity, evaluated 50 days after beginning; for Chemotherapeutic index (LD50/ED50): Tables 2 to 4; for Chemotherapeutic index (LD50/ED50) / LD50 (50 % lethal dose) / ED50 (50 % effective dose): i.p., for 10 days, 72000 min; for LD50 (50 % lethal dose): Behrens-Karber method; for ED50 (50 % effective dose): maximum dose level within the range of longevity ratio of 100 to 200; for Prolongation effect on the survival period of ICR-SLC mouse inoculated with Ehrlich ascites carcinoma: as shown in Tables 2 and 3
Protocol: The phleomycin was administered for ten consecutive days into peritoneal cavity of a ICR-SLC mouse, into which Ehrlich ascites carcinoma had been inoculated. Fifty days after the beginning of the experiment, measurements were made for (1) the number of dead mouse owing to toxicity, (2) the number of survived mouse, (3) mean survival period in 50 days, and (4) the ratio of mean survival period to that of reference mouse multiplied by 100. The chemotherapeutic index was calculated from the values of ED50 (50 % effective dose) and LD50 (50 % lethal dose) which were obtained as given below.
ED50 value: The maximum dose level within the range of logevity ratio of 100 to 200.
LD50 value: Calculated according to Behrens-Karber method from the data of (1) and (2).
^(2) A bleomycin was administered for ten consecutive days into
peritoneal cavity of a ICR-SLC mouse, where Ehrlich ascites carcinoma had
been inoculated, and 50 days after the beginning of experiment the […]

[3] = bleomycins of Table 5, bleomycin A2 (copper-free base) = 1000 unit/mg
[4] = 0.19 mg/kg/day for 10 days i.p.
[5] = 0.39 mg/kg/day for 10 days i.p.
[6] = 0.78 mg/kg/day for 10 days i.p.
[7] = 1.56 mg/kg/day for 10 days i.p.
[8] = 3.12 mg/kg/day for 10 days i.p.
[9] = 6.25 mg/kg/day for 10 days i.p.
[10] = 12.5 mg/kg/day for 10 days i.p.
[11] = 25.0 mg/kg/day for 10 days i.p.
[12] = phleomycins of Table 1, Bleomycin A2 (copper-free base) = 1000 U/mg

In the case of 3-Morpholinopropylaminobleomycin, the “Antimicrobial activity to Mycobacterium smegmatis 607” value ([1]; Referential Example, standard copper-free bleomycin A2 free base 1,000 U/mg) is reported as 605 U/mg, the Antimicrobial potency [1, 3] is reported as 592 Unit/mg and the “Average longevity (mean survival period in 50 days)” value (from here on “Average longevity”) [2, 4] is reported as 11.8. For the same molecule, the “Longevity ratio (mean survival period to that of reference mouse multiplied by 100)” value (shortened to “Longevity ratio”) [2, 4] was 97, the “Toxicity, number dead/total number” value [2, 4] was 0/5 and the “Viability (after 50 days), number survived/total number” value [2, 4] was 0/5. For the same molecule, the “Average longevity” value [2, 5] was 11.8, the “Longevity ratio” value [2, 5] was 97 and the “Toxicity, number dead/total number” value [2, 5] was 0/5. The “Viability (after 50 days), number survived/total number” value [2, 5] was 0/5, the “Average longevity” value [2, 6] was 33.0 and the “Longevity ratio” value [2, 6] was 270. The “Toxicity, number dead/total number” value [2, 6] was 0/5, the “Viability (after 50 days), number survived/total number” value [2, 6] was 2/5 and the “Average longevity” value [2, 7] was 36.6. For the same molecule, the “Longevity ratio” value [2, 7] was 300, the “Toxicity, number dead/total number” value [2, 7] was 0/5 and the “Viability (after 50 days), number survived/total number” value [2, 7] was 3/5. For the same molecule, the “Average longevity” value [2, 8] was 45.2, the “Longevity ratio” value [2, 8] was 370 and the “Toxicity, number dead/total number” value [2, 8] was 0/5. The “Viability (after 50 days), number survived/total number” value [2, 8] was 4/5, the “Average longevity” value [2, 9] was 34.2 and the “Longevity ratio” value [2, 9] was 280. The “Toxicity, number dead/total number” value [2, 9] was 2/5, the “Viability (after 50 days), number survived/total number” value [2, 9] was 3/5 and the “Average longevity” value [2, 10] was 30.4. The “Longevity ratio” value [2, 10] was 249, the “Toxicity, number dead/total number” value [2, 10] was 4/5 and the “Viability (after 50 days), number survived/total number” value [2, 10] was 1/5. For the same molecule, the “Average longevity” value [2, 11] was 12.4, the “Longevity ratio” value [2, 11] was 102 and the “Toxicity, number dead/total number” value [2, 11] was 5/5. For the same molecule, the “Viability (after 50 days), number survived/total number” value [2, 11] was 0/5, the Chemotherapeutic index [2] was 21.7 and the “Chemotherapeutic index (LD50/ED50)” value [2] was 12.1. The “LD50 (50 % lethal dose)” value [2] was 9.4 mg/kg/day and the “ED50 (50 % effective dose)” value [2] was 0.78 mg/kg/day.

3-Morpholinopropylaminophleomycin was tested, and the Antimicrobial potency [1, 12] was 474 unit/mg, the “Average longevity” value [2, 4] was 20.6 and the “Longevity ratio” value [2, 4] was 167. For the same molecule, the “Toxicity, number dead/total number” value [2, 4] was 0/5, the “Viability (after 50 days), number survived/total number” value [2, 4] was 0/5 and the “Average longevity” value [2, 5] was 16.2. For the same molecule, the “Longevity ratio” value [2, 5] was 133, the “Toxicity, number dead/total number” value [2, 5] was 0/5 and the “Viability (after 50 days), number survived/total number” value [2, 5] was 0/5. The “Average longevity” value [2, 6] was 22.8, the “Longevity ratio” value [2, 6] was 187 and the “Toxicity, number dead/total number” value [2, 6] was 0/5. For the same molecule, the “Viability (after 50 days), number survived/total number” value [2, 6] was 0/5, the “Average longevity” value [2, 7] was 35.0 and the “Longevity ratio” value [2, 7] was 287. For the same molecule, the “Toxicity, number dead/total number” value [2, 7] was 0/5, the “Viability (after 50 days), number survived/total number” value [2, 7] was 2/5 and the “Average longevity” value [2, 8] was 49.2. For the same molecule, the “Longevity ratio” value [2, 8] was 403, the “Toxicity, number dead/total number” value [2, 8] was 0/5 and the “Viability (after 50 days), number survived/total number” value [2, 8] was 5/5. The “Average longevity” value [2, 9] was 50.0, the “Longevity ratio” value [2, 9] was 410 and the “Toxicity, number dead/total number” value [2, 9] was 0/5. For the same molecule, the “Viability (after 50 days), number survived/total number” value [2, 9] was 5/5, the “Average longevity” value [2, 10] was 39.2 and the “Longevity ratio” value [2, 10] was 321. For the same molecule, the “Toxicity, number dead/total number” value [2, 10] was 2/5, the “Viability (after 50 days), number survived/total number” value [2, 10] was 3/5 and the “Average longevity” value [2, 11] was 26.2. For the same molecule, the “Longevity ratio” value [2, 11] was 215, the “Toxicity, number dead/total number” value [2, 11] was 5/5 and the “Viability (after 50 days), number survived/total number” value [2, 11] was 0/5. The “Chemotherapeutic index (LD50/ED50)” value [2] was 19.2, the “Prolongation effect on the survival period of ICR-SLC mouse inoculated with Ehrlich ascites carcinoma” value [2] was “distinct prolongation effect” and the “LD50 (50 % lethal dose)” value [2] was 15.0 mg/kg/day. The “ED50 (50 % effective dose)” value [2] was 0.78 mg/kg/day and the “Chemotherapeutic index compared with 3-morpholinopropylaminobleomycin” value ([2]; same terminal amine Y) was “practically same order”.

Molecule 3-N,N-Diethylaminopropylaminobleomycin has an Antimicrobial potency [1, 3] of 1036 Unit/mg and a Chemotherapeutic index [2] of 34.5.

With 3-N,N-Dimethylaminopropylaminobleomycin the Antimicrobial potency [1, 3] was 806 Unit/mg and the Chemotherapeutic index [2] was 20.4.

“3-N-(1-Phenylethyl)aminopropylaminobleomycin” was tested, and the Antimicrobial potency [1, 3] was 5320 Unit/mg and the Chemotherapeutic index [2] was 59.2.

“3-N-(3-Hydroxypropyl)aminopropylaminobleomycin” showed an Antimicrobial potency [1, 3] of 1021 Unit/mg and a Chemotherapeutic index [2] of 29.6.

3-N-Cyclohexylaminopropylaminobleomycin was tested, and the Antimicrobial potency [1, 3] was 6560 Unit/mg and the Chemotherapeutic index [2] was 16.3.

3-Piperidinopropylaminobleomycin was tested, and the Antimicrobial potency [1, 3] was 1257 Unit/mg and the Chemotherapeutic index [2] was 14.4.

For 3-Pyrrolidinopropylaminobleomycin, the Antimicrobial potency [1, 3] was 1066 Unit/mg and the Chemotherapeutic index [2] was 19.2.

“3-S,S-Dimethylmercaptopropylaminophleomycin” was tested, and the Antimicrobial potency [1, 12] was 865 unit/mg, the “Average longevity” value [2, 4] was 18.0 and the “Longevity ratio” value [2, 4] was 123. For the same molecule, the “Toxicity, number dead/total number” value [2, 4] was 0/5, the “Viability (after 50 days), number survived/total number” value [2, 4] was 0/5 and the “Average longevity” value [2, 5] was 21.0. The “Longevity ratio” value [2, 5] was 144, the “Toxicity, number dead/total number” value [2, 5] was 0/5 and the “Viability (after 50 days), number survived/total number” value [2, 5] was 0/5. The “Average longevity” value [2, 6] was 29.0, the “Longevity ratio” value [2, 6] was 199 and the “Toxicity, number dead/total number” value [2, 6] was 0/5. For the same molecule, the “Viability (after 50 days), number survived/total number” value [2, 6] was 2/5, the “Average longevity” value [2, 7] was 36.8 and the “Longevity ratio” value [2, 7] was 252. The “Toxicity, number dead/total number” value [2, 7] was 0/5, the “Viability (after 50 days), number survived/total number” value [2, 7] was 3/5 and the “Average longevity” value [2, 8] was 44.0. The “Longevity ratio” value [2, 8] was 301, the “Toxicity, number dead/total number” value [2, 8] was 0/5 and the “Viability (after 50 days), number survived/total number” value [2, 8] was 4/5. The “Average longevity” value [2, 9] was 33.8, the “Longevity ratio” value [2, 9] was 232 and the “Toxicity, number dead/total number” value [2, 9] was 3/5. The “Viability (after 50 days), number survived/total number” value [2, 9] was 1/5, the “Average longevity” value [2, 10] was 13.0 and the “Longevity ratio” value [2, 10] was 89. The “Toxicity, number dead/total number” value [2, 10] was 5/5, the “Viability (after 50 days), number survived/total number” value [2, 10] was 0/5 and the “Average longevity” value [2, 11] was 8.6. The “Longevity ratio” value [2, 11] was 59, the “Toxicity, number dead/total number” value [2, 11] was 5/5 and the “Viability (after 50 days), number survived/total number” value [2, 11] was 0/5. For the same molecule, the “Chemotherapeutic index (LD50/ED50)” value [2] was 8.5, the “Prolongation effect on the survival period of ICR-SLC mouse inoculated with Ehrlich ascites carcinoma” value [2] was “distinct prolongation effect” and the “LD50 (50 % lethal dose)” value [2] was 6.6 mg/kg/day. The “ED50 (50 % effective dose)” value [2] was 0.78 mg/kg/day.

With “3-[3-N-(1-Phenylethyl)aminopropylamino]propylaminobleomycin” the Antimicrobial potency [1, 3] was 9470 Unit/mg and the Chemotherapeutic index [2] was 18.1.

Cc1c(N)nc(C(CC(N)=O)NCC(N)C(N)=O)nc1C(=O)NC(C(=O)NC(C)C(O)C(C)C(=O)NC(C(=O)NCCc1nc(-c2nc(C(=O)NCCC[S+](C)C)cs2)cs1)C(C)O)C(OC1OC(CO)C(O)C(O)C1OC1OC(CO)C(O)C(OC(N)=O)C1O)c1cnc[nH]1 (centres unmarked) [3-S,S-Dimethylmercaptopropylaminobleomycin] was tested, and the Antimicrobial potency [1, 3] was 920 Unit/mg and the Chemotherapeutic index [2] was 12.0.
